# ChEMBL document CHEMBL3132769, “Fragment growing to retain or alter the selectivity of anchored kinase hinge-binding fragments” (Medchemcomm, 2014)
# How the values were obtained:
# [1] = molecular target: T1, Aurora kinase A (Homo sapiens) (UniProt O14965); assay: Inhibition of human full length AurA expressed in baculovirus assessed as substrate phosphorylation using fluorescence-labelled peptides as substrate at 2 uM after 90 mins by microfluidic peptide phosphorylation assay
# T1 sequence (whole entry): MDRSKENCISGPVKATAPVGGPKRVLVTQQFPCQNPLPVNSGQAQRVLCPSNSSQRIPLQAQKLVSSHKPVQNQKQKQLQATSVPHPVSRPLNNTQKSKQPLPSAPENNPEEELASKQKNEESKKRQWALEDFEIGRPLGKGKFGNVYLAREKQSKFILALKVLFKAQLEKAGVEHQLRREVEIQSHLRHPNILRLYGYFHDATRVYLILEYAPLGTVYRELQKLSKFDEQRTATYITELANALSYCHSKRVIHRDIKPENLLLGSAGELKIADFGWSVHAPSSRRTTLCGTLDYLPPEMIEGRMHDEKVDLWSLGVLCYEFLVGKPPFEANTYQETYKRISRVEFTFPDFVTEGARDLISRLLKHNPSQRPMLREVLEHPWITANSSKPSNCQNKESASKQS
# [2] = molecular target: T2, Inhibitor of nuclear factor kappa-B kinase subunit beta (Homo sapiens) (UniProt O14920); assay: Inhibition of human full length IKK beta expressed in baculovirus assessed as substrate phosphorylation using fluorescence-labelled peptides as substrate at 0.1 uM after 90 mins by microfluidic peptide phosphorylation assay
# T2 sequence (whole entry): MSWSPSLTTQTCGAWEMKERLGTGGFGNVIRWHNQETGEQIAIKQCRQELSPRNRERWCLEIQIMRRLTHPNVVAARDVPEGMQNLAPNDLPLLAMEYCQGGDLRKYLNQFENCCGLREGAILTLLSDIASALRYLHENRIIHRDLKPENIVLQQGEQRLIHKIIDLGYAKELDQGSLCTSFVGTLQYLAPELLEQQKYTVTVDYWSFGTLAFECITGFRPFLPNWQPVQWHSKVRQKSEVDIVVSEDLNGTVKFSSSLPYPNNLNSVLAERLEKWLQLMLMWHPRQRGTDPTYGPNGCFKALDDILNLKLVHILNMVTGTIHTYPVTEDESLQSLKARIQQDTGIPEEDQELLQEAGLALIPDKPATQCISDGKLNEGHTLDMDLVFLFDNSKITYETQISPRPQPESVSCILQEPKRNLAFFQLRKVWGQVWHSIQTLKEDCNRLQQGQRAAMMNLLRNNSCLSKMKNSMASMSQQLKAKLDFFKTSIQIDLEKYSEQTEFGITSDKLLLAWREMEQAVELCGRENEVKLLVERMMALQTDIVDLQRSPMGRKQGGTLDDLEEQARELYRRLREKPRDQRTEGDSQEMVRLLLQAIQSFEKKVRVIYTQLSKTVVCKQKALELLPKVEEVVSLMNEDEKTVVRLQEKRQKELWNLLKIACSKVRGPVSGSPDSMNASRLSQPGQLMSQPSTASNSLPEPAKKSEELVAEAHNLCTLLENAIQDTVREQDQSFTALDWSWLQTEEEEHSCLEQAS
# [3] = molecular target: T3, Serine/threonine-protein kinase D1 (Homo sapiens) (UniProt Q15139); assay: Inhibition of human full length PKD1 expressed in baculovirus assessed as substrate phosphorylation using fluorescence-labelled peptides as substrate at 0.1 uM after 90 mins by microfluidic peptide phosphorylation assay
# T3 sequence (whole entry): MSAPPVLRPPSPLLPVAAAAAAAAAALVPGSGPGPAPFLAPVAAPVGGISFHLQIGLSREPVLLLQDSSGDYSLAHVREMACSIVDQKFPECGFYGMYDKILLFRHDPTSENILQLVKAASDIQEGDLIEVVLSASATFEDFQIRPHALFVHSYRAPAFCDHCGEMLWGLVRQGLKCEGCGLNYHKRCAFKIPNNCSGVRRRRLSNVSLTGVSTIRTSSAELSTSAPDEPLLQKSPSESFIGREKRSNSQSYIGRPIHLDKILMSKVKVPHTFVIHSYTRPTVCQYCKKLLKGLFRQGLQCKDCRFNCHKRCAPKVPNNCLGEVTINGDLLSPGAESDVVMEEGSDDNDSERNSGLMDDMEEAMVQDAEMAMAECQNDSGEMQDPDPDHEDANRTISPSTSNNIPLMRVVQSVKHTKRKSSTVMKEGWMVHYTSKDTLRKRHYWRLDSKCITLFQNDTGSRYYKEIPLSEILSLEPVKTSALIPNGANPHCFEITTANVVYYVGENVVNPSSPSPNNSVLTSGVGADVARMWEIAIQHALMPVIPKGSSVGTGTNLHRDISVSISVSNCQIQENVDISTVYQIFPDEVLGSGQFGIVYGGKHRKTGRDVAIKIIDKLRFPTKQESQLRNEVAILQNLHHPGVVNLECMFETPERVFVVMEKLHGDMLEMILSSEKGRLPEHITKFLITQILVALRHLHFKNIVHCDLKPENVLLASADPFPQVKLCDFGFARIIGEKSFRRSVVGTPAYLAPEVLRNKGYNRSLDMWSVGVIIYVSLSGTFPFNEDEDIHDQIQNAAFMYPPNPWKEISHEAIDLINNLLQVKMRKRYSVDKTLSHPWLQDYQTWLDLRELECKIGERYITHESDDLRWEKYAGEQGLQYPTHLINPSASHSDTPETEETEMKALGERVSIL
# [4] = molecular target: Receptor-type tyrosine-protein kinase FLT3 (Homo sapiens) (UniProt P36888); assay: Inhibition of human FLT3 catalytic domain expressed in baculovirus assessed as substrate phosphorylation using fluorescence-labelled peptides as substrate at 95 uM after 90 mins by microfluidic peptide phosphorylation assay
# Sequence of Receptor-type tyrosine-protein kinase FLT3 (Homo sapiens) (P36888 whole entry, the tested form may be a part): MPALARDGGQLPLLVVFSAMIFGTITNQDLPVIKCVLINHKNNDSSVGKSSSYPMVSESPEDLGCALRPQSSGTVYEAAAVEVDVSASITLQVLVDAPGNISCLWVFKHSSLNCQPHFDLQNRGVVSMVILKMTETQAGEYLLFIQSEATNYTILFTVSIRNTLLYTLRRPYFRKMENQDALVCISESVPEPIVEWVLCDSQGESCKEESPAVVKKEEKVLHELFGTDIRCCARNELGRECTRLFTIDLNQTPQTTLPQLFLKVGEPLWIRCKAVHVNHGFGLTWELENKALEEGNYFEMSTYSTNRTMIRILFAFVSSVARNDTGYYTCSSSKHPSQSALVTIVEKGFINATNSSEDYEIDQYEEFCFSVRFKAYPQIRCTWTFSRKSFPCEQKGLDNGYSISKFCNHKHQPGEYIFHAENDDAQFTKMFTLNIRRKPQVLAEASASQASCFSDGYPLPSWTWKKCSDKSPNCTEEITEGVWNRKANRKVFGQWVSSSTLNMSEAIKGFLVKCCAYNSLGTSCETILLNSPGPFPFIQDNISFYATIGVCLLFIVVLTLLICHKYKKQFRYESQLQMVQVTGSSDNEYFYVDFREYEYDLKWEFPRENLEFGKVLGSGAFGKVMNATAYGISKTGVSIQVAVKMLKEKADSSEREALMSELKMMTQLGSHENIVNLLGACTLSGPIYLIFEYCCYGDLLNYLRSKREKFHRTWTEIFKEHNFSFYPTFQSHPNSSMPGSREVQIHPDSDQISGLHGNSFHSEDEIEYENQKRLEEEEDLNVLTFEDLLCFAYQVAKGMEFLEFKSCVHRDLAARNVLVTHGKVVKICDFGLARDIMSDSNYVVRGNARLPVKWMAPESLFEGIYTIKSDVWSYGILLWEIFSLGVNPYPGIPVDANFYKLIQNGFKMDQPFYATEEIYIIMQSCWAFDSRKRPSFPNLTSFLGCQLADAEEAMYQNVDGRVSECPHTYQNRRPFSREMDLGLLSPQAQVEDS
# [5] = molecular target: Cyclin-dependent kinase 2 (Homo sapiens) (UniProt P24941); assay: Inhibition of human full length CDK2 expressed in baculovirus assessed as substrate phosphorylation using fluorescence-labelled peptides as substrate at 70 uM after 90 mins by microfluidic peptide phosphorylation assay
# [6] = molecular target: T4, Serine/threonine-protein kinase Sgk1 (Homo sapiens) (UniProt O00141); assay: Inhibition of human truncated SGK1 expressed in baculovirus assessed as substrate phosphorylation using fluorescence-labelled peptides as substrate at 420 uM after 90 mins by microfluidic peptide phosphorylation assay
# T4 sequence (whole entry): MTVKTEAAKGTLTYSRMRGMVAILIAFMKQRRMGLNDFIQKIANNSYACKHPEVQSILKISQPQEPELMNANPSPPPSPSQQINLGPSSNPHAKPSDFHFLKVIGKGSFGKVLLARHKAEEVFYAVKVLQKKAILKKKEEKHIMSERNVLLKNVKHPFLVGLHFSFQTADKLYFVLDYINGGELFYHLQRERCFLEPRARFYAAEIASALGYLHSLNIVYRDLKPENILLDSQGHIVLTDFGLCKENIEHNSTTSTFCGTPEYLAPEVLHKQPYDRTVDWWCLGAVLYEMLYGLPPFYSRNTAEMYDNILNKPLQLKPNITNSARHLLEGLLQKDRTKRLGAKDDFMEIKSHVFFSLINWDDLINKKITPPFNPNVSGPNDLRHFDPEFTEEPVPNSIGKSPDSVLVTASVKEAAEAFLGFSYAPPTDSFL
smiles,measurement,setting,value
NC1CCN(c2ncnc3[nH]ccc23)CC1,inhibition,[1],64.5%
C[C@H](CN(C)C)Oc1nc(Nc2cc3cccc(Cl)c3cn2)cnc1C#N,inhibition,[2],3.5%
same,inhibition,[3],5%
NCCc1ccc(-c2ncnc3[nH]cnc23)cc1,inhibition,[4],49.5%
CNCc1ccc(-c2ncnc3[nH]cnc23)cc1,inhibition,[5],34%
c1nc(N2CCOCC2)c2nc[nH]c2n1,inhibition,[6],83.5%
